Test results: publication PMC10799292, “The Role of β-Defensin 1 Against Porphyromonas gingivalis Lipopolysaccharide-Mediated Inflammation in the THP-1 Cell Line” (Cureus, 2023)
No end group written: not given here.

How the values were obtained:
Assay type in all cases: cell-based, human
COX = assay: Cyclooxygenase (COX) activity inhibition in lysate of Pg-LPS stimulated THP-1 cells; details: for COX Percentage inhibition Average / COX Percentage inhibition 1 / COX Percentage inhibition 2: Pg-LPS 1 µg/mL, 24 h; for COX Percentage inhibition Average: mean of duplicates; for COX Percentage inhibition 1: replicate 1; for COX Percentage inhibition 2: replicate 2
Procedure: (§1) For inducing differentiation of THP-1 cells into macrophages, the cell line was premixed with 25 ng/mL PMA and incubated for 48 hours. After incubation, 5x10^4 cells were activated with Pg-LPS (LPS: 1 µg/mL) for one hour. Pg-LPS stimulated cells were exposed to different concentrations (6.25, 12.5, and 25 ng/mL) of β-defensin 1 and incubated for 24 hours. After incubation, the following anti-inflammatory assays were conducted utilizing the cell lysate.
The cyclooxygenase (COX) activity was assayed by the method of Walker and Gierse. The cell lysate was incubated for one minute at 25°C with Tris-HCl buffer (pH 8), glutathione 5 mM/L, and hemoglobin 5 mM/L. Arachidonic acid 200 mM/L was added to initiate the reaction, and after 20 minutes at 37°C, 200 µL of 10% trichloroacetic acid in 1 N hydrochloric acid was added to terminate the reaction. After centrifugation and addition of 200 µL of 1% thiobarbituric acid, the tubes were boiled for 20 minutes. After cooling, the tubes were centrifuged for three minutes. By reading absorbance at […], COX activity was measured, and the percentage of COX activity inhibition was calculated as per the following formula

LOX = assay: Lipoxygenase (LOX) activity inhibition in lysate of Pg-LPS stimulated THP-1 cells; details: for LOX Percentage inhibition Average / LOX Percentage inhibition 1 / LOX Percentage inhibition 2: Pg-LPS 1 µg/mL, 24 h; for LOX Percentage inhibition Average: mean of duplicates; for LOX Percentage inhibition 1: replicate 1; for LOX Percentage inhibition 2: replicate 2
Procedure: as §1
The lipoxygenase (LOX) activity was determined using the method described by Axelrod in 1981 [12]. The reaction mixture consisted of 50 µL of cell lysate, Tris-HCl buffer (pH 7.4), and 200 µL of sodium linoleate. By determining absorbance at 234 nm (Agilent Cary 60), the formation of […], an indicator of LOX activity, was tracked. The percentage inhibition of the enzyme was computed as […]

[1] = test system: Inducible nitric oxide synthase; assay: Inducible nitric oxide synthase inhibition in lysate of Pg-LPS stimulated THP-1 cells; details: for Inducible nitric oxide synthase Percentage inhibition Average / Inducible nitric oxide synthase Percentage inhibition 1 / Inducible nitric oxide synthase Percentage inhibition 2: Pg-LPS 1 µg/mL, 24 h; for Inducible nitric oxide synthase Percentage inhibition Average: mean of duplicates; for Inducible nitric oxide synthase Percentage inhibition 1: replicate 1; for Inducible nitric oxide synthase Percentage inhibition 2: replicate 2
Procedure: as §1
Nitric oxide synthase was measured using the method reported by Salter et al.. The cell lysate was homogenized in 2 ml of 4-(2-hydroxyethyl)-1-piperazineethanesulfonic acid (HEPES) buffer. The assay system contained 0.1 mL of 2 µmol/L L-Arginine, 0.1 mL of 4 µmol/L manganese chloride, 0.1 mL of 10 mmol/L 30 µg dithiothreitol (DTT), 0.1 mL of 1 mmol/L NADPH, 0.1 mL of 4 µmol/L tetrahydropterin, 0.1 mL of 10µmol/L oxygenated hemoglobin, and 0.1 mL of cell lysate. Enzyme activity was measured by recording an increase in absorbance at 401 nm, and the following equation was used: […]

THP-1 cells [2] = assay: Intracellular ROS generation, DCFDA assay; details: β-defensin 1 22.62 ng/mL 24 h after Pg-LPS 1 µg/mL 1 h; DCFDA 30 min, ex 470 nm, em 635 nm; untreated control 2379
Procedure: Untreated control and Pg-LPS treated wells were also maintained. The cells were washed with PBS, and 50 µl of Dichlorodihydrofluorescein diacetate (DCFDA) was added, followed by incubation for 30 minutes. After incubation, excess dye was removed with PBS, and fluorescence was observed using a fluorescent microscope (Olympus CKX41 with Optika Pro5 CCD camera) and quantified with a fluorimeter at 470 nm excitation and emission at […] (Qubit 3.0, Life Technologies, USA), displaying the results in arbitrary units (AU).
The effect of β-defensin 1 on ROS generation in THP-1 cells stimulated with Pg-LPS was studied. DCFDA, a fluorogenic dye, measures hydroxyl, peroxyl, and other ROS activities within the cell. After entering the cell, DCFDA is deacetylated by cellular esterases into a non-fluorescent compound. This nonfluorescent chemical is then oxidized by ROS into […] (DCF), which, upon excitation with a blue filter, emits green fluorescence. When THP-1 cells were stimulated with Pg-LPS, there was a considerable increase in fluorescence, which decreased upon treatment with β-defensin 1, as shown in Figure 7 and Table 2.

THP-1 cells [3] = assay: Cell cycle distribution by flow cytometry; details: co-treated with β-defensin 1, Pg-LPS stimulated
Procedure: Untreated control and Pg-LPS stimulated cells were also maintained. The MUSE Cell Cycle Kit was added, and the manufacturer's instructions were followed.

[4] = 6.25, 12.5, and 25 ng/mL, Pg-LPS stimulated

β-defensin 1: β-Defensin 1 peptide was purchased from ThermoFisher Scientific, USA; cationic antimicrobial peptide (DHYNCVSSGGQCLYSACPIFTKIQGTCYRGKAKCCK; ends and bridges not checked; cysteine pairing not given here; UniProt P60022 33-68, looked up)
COX Percentage inhibition Average (COX; 6.25 ng/mL): 19.085% | COX Percentage inhibition 1 (COX; 6.25 ng/mL): 19.77% | COX Percentage inhibition 2 (COX; 6.25 ng/mL): 18.4% | COX Percentage inhibition Average (COX; 12.5 ng/mL): 35.75% | COX Percentage inhibition 1 (COX; 12.5 ng/mL): 36.41% | COX Percentage inhibition 2 (COX; 12.5 ng/mL): 35.09% | COX Percentage inhibition Average (COX; 25 ng/mL): 53.03% | COX Percentage inhibition 1 (COX; 25 ng/mL): 53.21% | COX Percentage inhibition 2 (COX; 25 ng/mL): 52.85% | COX percentage inhibition (in words) (COX; [4]): increased in a concentration-dependent manner | IC50 (COX inhibition assay) (COX; Pg-LPS 1 µg/mL 1 h, then β-defensin 1 24 h): 22.62 ng/mL | LOX Percentage inhibition Average (LOX; 6.25 ng/mL): 21.485% | LOX Percentage inhibition 1 (LOX; 6.25 ng/mL): 21.23% | LOX Percentage inhibition 2 (LOX; 6.25 ng/mL): 21.74% | LOX Percentage inhibition Average (LOX; 12.5 ng/mL): 38.08% | LOX Percentage inhibition 1 (LOX; 12.5 ng/mL): 38.85% | LOX Percentage inhibition 2 (LOX; 12.5 ng/mL): 37.31% | LOX Percentage inhibition Average (LOX; 25 ng/mL): 54.675% | LOX Percentage inhibition 1 (LOX; 25 ng/mL): 55.2% | LOX Percentage inhibition 2 (LOX; 25 ng/mL): 54.15% | LOX percentage inhibition (in words) (LOX; [4]): increased in a concentration-dependent manner | Inducible nitric oxide synthase Percentage inhibition Average ([1]; 6.25 ng/mL): 19.08% | Inducible nitric oxide synthase Percentage inhibition 1 ([1]; 6.25 ng/mL): 18.99% | Inducible nitric oxide synthase Percentage inhibition 2 ([1]; 6.25 ng/mL): 19.17% | Inducible nitric oxide synthase Percentage inhibition Average ([1]; 12.5 ng/mL): 34.275% | Inducible nitric oxide synthase Percentage inhibition 1 ([1]; 12.5 ng/mL): 34.63% | Inducible nitric oxide synthase Percentage inhibition 2 ([1]; 12.5 ng/mL): 33.92% | Inducible nitric oxide synthase Percentage inhibition Average ([1]; 25 ng/mL): 50.135% | Inducible nitric oxide synthase Percentage inhibition 1 ([1]; 25 ng/mL): 50.27% | Inducible nitric oxide synthase Percentage inhibition 2 ([1]; 25 ng/mL): 50% | inducible nitric oxide synthase percentage inhibition (in words) [1, 4]: increased in a concentration-dependent manner | ROS generation, Fluorescence intensity (THP-1 cells [2]): 5006.24 AU | arrest in the G0/G1 phase (in words) (THP-1 cells [3]): reduced
